Measurements as given in patent publication US4599352A, “Antineoplastic platinum (IV) complexes and compositions” (priority 1984, dated 1986).

Assays:
IP L1210 leukemia = test: Mouse optimal (highest tolerated) dose, IP L1210 leukemia, Days 1, 5 and 9 schedule (Table 7); type: in vivo
Source text: *IP L1210 leukemia, Days 1, 5 and 9 schedule. Highest tolerated dose in a
least 2 of 3 experiments (i.e,. animal weight difference (testcontrol)

[1] = system: SC Implanted L1210 Leukemia; test: Activity against SC implanted L1210 leukemia following intravenous administration, once daily Days 1-5 (Table 5); type: in vivo, CD2Fl male mice; conditions: for Optimal Dose: IV once daily Days 1-5
Protocol: (§1) Biological properties of the compounds of the present invention were determined following the protocol described in Cancer Chemotherapy Reports, Vol. 3, No. 3, 1972 which report is incorporated herein by reference.
In another type of experiment the same platinum complexes were directly compared against the SC implanted L1210 following intravenous administration (Table 5).
This experiment (A8-00004 3LE32) was conducted at the Southern Research Institute, Birmingham, Ala. under the supervision of Dr. Daniel Griswold. The protocols were the same as those published previously (Attachment 11). 10^6 cells were implanted subcutaneously in CD2Fl male mice on Day 0. Drug treatments were given intravenously once daily at the doses indicated on Days 1-5 after tumor implantation. The dosage range tested included the highest and lowest doses indicated in the Table as well as intermediate values which were determined by multiplying each dose in turn by 0.5 starting with the highest dose. The diluent was saline except for NSC-271674 for which 5% sodium bicarbonate was used. All drugs were prepared fresh on the day of injection, and all were administered in solution. Median survival times for both control and drug-treated mice were determined and expressed as a percentage (% T/C). Body weights were determined on Day 5 and expressed as a weight difference (body weight of the drug-treated animals minus that of the control animals in grams) (T-C).

IP L1210 = test: Activity against IP-implanted L1210 leukemia sensitive to cisplatin, 30 day test (Table 3); type: in vivo, Female CD2Fl mice
Protocol: as §1
(§2) Other known mechanisms of resistance for other classes of agents, such as gene amplification or target enzyme change or amplication, also need to be explored. The experiments summarized in Table 3 were conducted at the same time against both sublines using the same drug preparations. […] These experiments were repeated in a second laboratory as documented in Table 4. However, in these experiments the animals were held for 60 rather than 30 days to evaluate whether or not long-term survivors are produced after drug treatment in a more challenging setting.
This experiment (A8-00005 3LE31) was conducted at the Southern Research Institute, Birmingham, Ala. under the supervision of Dr. Daniel Griswold. The protocols were the same as those published previously (Geran et al., Cancer Chemotherapy Reports 3: No. 2, 1972 [Attachment 11]). 10^5 cells were implanted intraperitoneally in CD2Fl male mice on Day 0. Drug treatments were given intraperitoneally as single injections at the doses indicated on Days 1, 5 and 9 after tumor implantation. The diluent was saline except for NSC-271674 where 5% sodium bicarbonate was used. All drugs were prepared fresh on the day of injection, and all were administered in solution. Median survival times for both control and drug-treated mice were determined and expressed as a percentage (% T/C). Body weights were determined on Day 5 and expressed as a weight difference (body weight of the drug-treated animals minus that of the control animals in grams) (T-C). The diluent control animals lived a median of 8.4 days and gained 1.9 grams by Day 5 in this experiment. All animals, including Day 30 survivors, were used in the calculation of median survival times. The log10 change in tumor burden refers to the net log change in viable tumor cell population at the end of therapy (Rx) as compared to the start of therapy; e.g., a […] means that there was a […] and a 3 log change means there was a 1000-fold increase in tumor burden at the end of therapy. The tumor burden at the start of therapy was about 6.1×10^5 cells in this experiment.
These experiments (A8-00008 3LE31 and A8-00001 3DP31) were conducted concurrently at the Southern Research Institute, Birmingham, Ala. under the supervision of Dr. Daniel Griswold. See Table 4 for experimental details. The diluent control animals bearing L1210 leukemia lived a median of 8.6 days and gained 1.3 grams by Day 5. […] Female CD2Fl mice were used for these experiments.

IP L1210/Cisplatin = test: Activity against IP-implanted L1210/Cisplatin leukemia resistant to cisplatin, 30 day test (Table 3); type: in vivo, Female CD2Fl mice
Protocol: as §1, §2
This experiment (A8-00005 3LE31) was conducted at the Southern Research Institute, Birmingham, Ala. under the supervision of Dr. Daniel Griswold. The protocols were the same as those published previously (Geran et al., Cancer Chemotherapy Reports 3: No. 2, 1972 [Attachment 11]). 10^5 cells were implanted intraperitoneally in CD2Fl male mice on Day 0. Drug treatments were given intraperitoneally as single injections at the doses indicated on Days 1, 5 and 9 after tumor implantation. The diluent was saline except for NSC-271674 where 5% sodium bicarbonate was used. All drugs were prepared fresh on the day of injection, and all were administered in solution. Median survival times for both control and drug-treated mice were determined and expressed as a percentage (% T/C). Body weights were determined on Day 5 and expressed as a weight difference (body weight of the drug-treated animals minus that of the control animals in grams) (T-C). The diluent control animals lived a median of 8.4 days and gained 1.9 grams by Day 5 in this experiment. All animals, including Day 30 survivors, were used in the calculation of median survival times. The log10 change in tumor burden refers to the net log change in viable tumor cell population at the end of therapy (Rx) as compared to the start of therapy; e.g., a […] means that there was a […] and a 3 log change means there was a 1000-fold increase in tumor burden at the end of therapy. The tumor burden at the start of therapy was about 6.1×10^5 cells in this experiment. […]

N.N.[Cl][Pt][Cl] [Cisplatin, cis-diamminedichloroplatinum (II), reference compound]
Mouse Optimal Dose (highest tolerated dose in at least 2 of 3 experiments) (IP L1210 leukemia): 10 mg/kg
Body Weight Difference ([1]; 5 mg/kg/inj IV): -5.7 Grams
Median % T/C ([1]; 5 mg/kg/inj IV): 138%
Median Survival Time ([1]; 5 mg/kg/inj IV): 14.3 days
Optimal Dose [1]: 5 mg/kg/inj
30 Day Survivors/Total (IP L1210; 1.25 mg/kg/dose): 0/6
Approx. Log10 Change in Tumor Burden at End of RX (IP L1210; 1.25 mg/kg/dose): ~3.0 log10
Median % T/C (IP L1210; 1.25 mg/kg/dose): 116%
30 Day Survivors/Total (IP L1210; 5 mg/kg/dose): 0/6
Approx. Log10 Change in Tumor Burden at End of RX (IP L1210; 5 mg/kg/dose): ~2.2 log10
Median % T/C (IP L1210; 5 mg/kg/dose): 162%
30 Day Survivors/Total (IP L1210; 10 mg/kg/dose): 3/6
Approx. Log10 Change in Tumor Burden at End of RX (IP L1210; 10 mg/kg/dose): ~-5.9 log10
Median % T/C (IP L1210; 10 mg/kg/dose): 348%
30 Day Survivors/Total (IP L1210; 20 mg/kg/dose): 0/6
Approx. Log10 Change in Tumor Burden at End of RX (IP L1210; 20 mg/kg/dose): ~2.4 log10
Median % T/C (IP L1210; 20 mg/kg/dose): 148%
30 Day Survivors/Total (IP L1210/Cisplatin; 1.25 mg/kg/dose): 0/6
Approx. Log10 Change in Tumor Burden at End of RX (IP L1210/Cisplatin; 1.25 mg/kg/dose): ~3.0 log10
Median % T/C (IP L1210/Cisplatin; 1.25 mg/kg/dose): 104%
30 Day Survivors/Total (IP L1210/Cisplatin; 5 mg/kg/dose): 0/6
Approx. Log10 Change in Tumor Burden at End of RX (IP L1210/Cisplatin; 5 mg/kg/dose): ~3.1 log10
Median % T/C (IP L1210/Cisplatin; 5 mg/kg/dose): 101%
30 Day Survivors/Total (IP L1210/Cisplatin; 10 mg/kg/dose): 0/6
Approx. Log10 Change in Tumor Burden at End of RX (IP L1210/Cisplatin; 10 mg/kg/dose): ~2.9 log10
Median % T/C (IP L1210/Cisplatin; 10 mg/kg/dose): 108%
30 Day Survivors/Total (IP L1210/Cisplatin; 20 mg/kg/dose): 0/6
Median % T/C (IP L1210/Cisplatin; 20 mg/kg/dose): 86%
Activity against L1210/cisplatin (IP L1210/Cisplatin; mouse, in vivo): refractory

[Cl][Pt-2]1([Cl])([Cl])([Cl])[NH2+][C@@H]2CCCC[C@H]2[NH2+]1 [trans (l), (1R,2R)-Tetrachloro-trans-1,2-cyclohexanediammine platinum (IV)]
Mouse Optimal Dose (highest tolerated dose in at least 2 of 3 experiments) (IP L1210 leukemia): 8 mg/kg
Optimal Dose [1]: 2.5 mg/kg/inj
30 Day Survivors/Total (IP L1210; 1 mg/kg/dose): 0/6
Approx. Log10 Change in Tumor Burden at End of RX (IP L1210; 1 mg/kg/dose): ~2.5 log10
Median % T/C (IP L1210; 1 mg/kg/dose): 143%
30 Day Survivors/Total (IP L1210; 2 mg/kg/dose): 1/6
Approx. Log10 Change in Tumor Burden at End of RX (IP L1210; 2 mg/kg/dose): ~-0.4 log10
Median % T/C (IP L1210; 2 mg/kg/dose): 197%
30 Day Survivors/Total (IP L1210; 4 mg/kg/dose): 2/6
Approx. Log10 Change in Tumor Burden at End of RX (IP L1210; 4 mg/kg/dose): ~-5.9 log10
Median % T/C (IP L1210; 4 mg/kg/dose): 313%
30 Day Survivors/Total (IP L1210; 8 mg/kg/dose): 4/6
Approx. Log10 Change in Tumor Burden at End of RX (IP L1210; 8 mg/kg/dose): ~-5.9 log10
Median % T/C (IP L1210; 8 mg/kg/dose): 348%
30 Day Survivors/Total (IP L1210; 16 mg/kg/dose): 0/6
Median % T/C (IP L1210; 16 mg/kg/dose): 93%
30 Day Survivors/Total (IP L1210/Cisplatin; 1 mg/kg/dose): 0/6
Approx. Log10 Change in Tumor Burden at End of RX (IP L1210/Cisplatin; 1 mg/kg/dose): ~2.8 log10
Median % T/C (IP L1210/Cisplatin; 1 mg/kg/dose): 118%
30 Day Survivors/Total (IP L1210/Cisplatin; 2 mg/kg/dose): 0/6
Approx. Log10 Change in Tumor Burden at End of RX (IP L1210/Cisplatin; 2 mg/kg/dose): ~2.5 log10
Median % T/C (IP L1210/Cisplatin; 2 mg/kg/dose): 137%
30 Day Survivors/Total (IP L1210/Cisplatin; 4 mg/kg/dose): 5/6
Approx. Log10 Change in Tumor Burden at End of RX (IP L1210/Cisplatin; 4 mg/kg/dose): ~-5.9 log10
Median % T/C (IP L1210/Cisplatin; 4 mg/kg/dose): 322%
30 Day Survivors/Total (IP L1210/Cisplatin; 8 mg/kg/dose): 5/6
Approx. Log10 Change in Tumor Burden at End of RX (IP L1210/Cisplatin; 8 mg/kg/dose): ~-5.9 log10
Median % T/C (IP L1210/Cisplatin; 8 mg/kg/dose): 322%
30 Day Survivors/Total (IP L1210/Cisplatin; 16 mg/kg/dose): 0/6
Approx. Log10 Change in Tumor Burden at End of RX (IP L1210/Cisplatin; 16 mg/kg/dose): ~3.1 log10
Median % T/C (IP L1210/Cisplatin; 16 mg/kg/dose): 89%
